In patent US20240270731A1, “[…]” (ALEBUND PHARMACEUTICALS (HONG KONG) LIMITED, priority 2021, published 2024):

Assays:
[1] = system: rat model of unilateral ureteral obstruction; assay: Renal injury in rat model of unilateral ureteral obstruction; settings: 0.2 mg/kg oral daily, 14 treatment days
Experimental: Housing temperature was maintained at 20-26° C. and humidity at 40%-60%. Rats were fed with a standard chow and allowed to access food and water ad libitum.
The formulation was prepared twice a week.
Vehicle or compounds were administrated by orally gavage daily. Unilateral ureteral obstruction was performed on the second day of compound treatment. Animals in model group, reference group and compound group underwent urethral ligation under isoflurane anesthesia one hour after receiving compound administration. A flank incision was cut to expose the left ureter, and a 4-0 surgical suture was used to perform two-point ligation to achieve urethral obstruction. Ureter was cut between the two ligation points. Animals in the control group were subjected to the same surgical treatment except the ligation and cut.
Rats were sacrificed after 14 days' compound treatment. The obstructed kidney was weighed and collected for histology. The tissue samples were fixed with formalin, and then paraffin embedded. The embedded tissue was sectioned and stained with hematoxylin & eosin and Masson trichrome to assess kidney structure and fibrosis.
The multiple comparison was analyzed with the Kruskal-Wallis non-parameter test. The Dunn's test was used to compare the difference to the model group.

[2] = system: db/db type 2 diabetes model; assay: Pharmacodynamics study on the db/db type 2 diabetes model
Source text: 45 db/db mice were evenly divided into 5 groups before the initiation of treatment based on the body weights, serum triglyceride (TG) levels, and random blood glucose levels.
All animals were weighed daily before each dosing and treated daily for 14 consecutive days.
All the data was imported into an Excel file and presented as Mean±SEM. Graphpad Prism 7.0 software was used for data statistical analysis by One-way or Two-way ANOVA, with P<0.05 as the criterion of significant differences.

[3] = system: uninephrectomied db/db mice; assay: Diabetic nephropathy pharmacodynamic model (uninephrectomied db/db mice)
Experimental: Housing temperature was maintained at 22-26° C. and humidity at 40%-60%. Mice were allowed to access food and water ad libitum. […] Buprenorphine was applied after surgery.
Two weeks after surgery, db/db mice were randomly assigned into 5 groups. Wild type mice were used for the control animals. […] Compounds were orally administrated once per day for 10 weeks.
At the 5th and 9th week after compound administration, mice were placed in metabolic cages for urine collection. Albumin level was measured for 24 hr albumin excretion calculation. At the 10th week after treatment, the animals were sacrificed for kidney dissection. The kidney was fixed in 10% neutral buffed formalin, then paraffin-embedded for histopathological analysis. Glomerulosclerosis was assessed by evaluating glomerular basement membrane, mesangial expansion, nodular sclerosis and glomerulosclerosis.
Graphpad 8.0 software was used for statistical analysis. The difference between the values were analyzed with one-way ANOVA. The difference between histopathological score was analyzed with Kruskal-Wallis nonparameter test.

[4] = system: rat model of hyperlipidemia induced by high cholesterol diet; assay: Rat model of hyperlipidemia induced by high cholesterol diet (serum TG, NEFA); type: in vivo, Sprague-Dawley rats
Source text: On the day before the start of the administration (Day 0), the animals were divided into 7 groups based on body weights and serum indicators and were continually fed with the high-cholesterol diet. The treatment groups were orally dosed with either compound or vehicle while continuing the high-cholesterol diet for a total of 1 week. The animals were weighed daily before the treatment, and the compounds were given at 9:00-9:30 in the morning based on the body weight of the day.

CO[C@@H](Cc1ccc(OCCc2nc(-c3ccccc3)oc2C)c2ccsc12)C(=O)O (single isomer, unassigned) [Compound 2]
Total score of renal focal lesions (infract, tubular dilation, tubular obstruction, fibrosis, necrosis) compared with model group [1]: significantly improved | OGTT blood glucose compared with the vehicle group ([2]; 0.05 mg/kg, all time points): did not reach statistical significance | Serum TG levels compared with the vehicle group ([2]; Day 6 and Day 12, Aleglitazar 0.2 mg/kg, Compound 2 at different dosages): significantly lower | Effect on lowering blood glucose compared with Aleglitazar ([2]; random blood glucose, Day 7 and Day 14): slightly weaker effect | OGTT AUC0-120min compared with Aleglitazar ([2]; same dose level (0.2 mg/kg)): higher | 24-hour urinary albumin compared with vehicle ([3]; 5th and 9th weeks after compound administration, 0.1, 0.3, 1 mg/kg oral once per day): significantly decreased | Renal tubular injury (histopathology) ([3]; all dosage levels (0.1, 0.3, 1 mg/kg), 10 weeks): improved the tubular injury at some extend | Glomerulosclerosis histopathological score and glomerular volume ([3]; high dose (1 mg/kg), 10 weeks): statistically significantly reduced | Serum NEFA compared with Aleglitazar ([4]; 0.2 mg/kg, T-test, P<0.05): significantly reduce | Serum TG compared with Aleglitazar ([4]; 0.2 mg/kg, T-test, P<0.05): significantly reduce | Serum TG and NEFA levels compared with the vehicle group ([4]; Day 8, both 0.2 mg/kg and 0.6 mg/kg): significantly reduce
